# Experimental data from paper PMC4538536, “In Silico-Based High-Throughput Screen for Discovery of Novel Combinations for Tuberculosis Treatment” (Antimicrobial Agents and Chemotherapy, 2015).
# Where two headings read alike, the source gives them in different places.
# How the values were obtained:
# M. tuberculosis H37Rv [1] = assay: MIC determination, resazurin-based microplate assay; assay type: cell-based, Mycobacterium tuberculosis; conditions: Mycobacterium tuberculosis, single drug
# [2] = In vivo pharmacokinetics in infected mice (plasma, LC-MS/MS); parameters: species or system BALB/c mice; conditions: BALB/c, mouse, plasma, po, steady state, infected mice
# Method: The drugs were formulated in 0.5% hydroxypropyl methyl cellulose (HPMC)–0.1% Tween 80 suspensions as 3- or 4-drug combinations. Formulations were prepared by weighing and adding each compound to the bottle, according to the design. Formulation vehicle was added, and the suspension was stirred overnight. Only uniform suspensions were used, while those that precipitated were abandoned. Formulations were prepared every week, and compound stability was estimated at the end of the week. Pharmacokinetics (PK) analysis was performed on infected mice on the 20th day of dosing. Blood samples were collected from each mouse at 0.5, 2, 4, 6, and 24 h after compound administration. Blood samples of about 30 μl were collected from mice in all groups by serial sampling via the saphenous vein into Microvette CB300 tubes (Starstedt, Germany) coated with EDTA, and plasma (10 μl) was separated following centrifugation. Plasma samples were stored at –20°C until analysis using liquid chromatography-tandem mass spectrometry (LC-MS/MS).
# A 1-mg/ml stock solution of each compound was prepared in dimethyl sulfoxide (DMSO) for all of the analytes except PZA and LZD, for which the stock solution was 10 mg/ml in DMSO, and RIF, for which the stock solution was prepared in 50% acetonitrile in water. Three different sets of calibration standard (CS) combinations were prepared by 2-fold dilution of the stock solutions. CS set 1 contained analytes CLO, BDQ, PA824, PZA, and SQ109, CS set 2 contained analytes BTZ043, MXF, THI, EMB, and PZA, and CS set 3 contained LZD, INH, RIF, and PZA. A 16-point calibration curve was utilized for all analytes, and the standard curves ranged from 0.0005 to 20 μg/ml except for PZA and LZD, for which the standard curve range was 0.006 to 200 μg/ml. Plasma samples were precipitated by adding chilled acetonitrile (1:10, vol/vol) containing carbamazepine as an internal standard (10 ng/ml). Samples were vortexed and then centrifuged at 4,000 rpm for 30 min at 10°C. The resulting supernatant was mixed with the mobile phase (50% acetonitrile in water with 0.1% formic acid). Five microliters of the sample was injected on to a liquid chromatographic system (Acquity ultraperformance liquid chromatography [UPLC] system, Waters, Milford, MA) coupled to a triple-quadrupole mass spectrometer (Xevo TQ-S; Waters, Milford, MA). Samples were separated on an LC column (ACE 3 C18, 50 by 4.6 mm, 3 μm particle size; Advanced Chromatography Technologies, Aberdeen, Scotland) by isocratic elution with 40 parts of 20 mM ammonium formate containing 0.1% (vol/vol) formic acid and 60 parts of acetonitrile at a flow rate of 0.5 ml/min with a run time of 4 min. Samples were acquired in positive ion mode and detected by multiple reaction monitoring (MRM). The concentrations of the analyte were determined from a standard curve obtained by plotting known concentrations of the analyte against peak area ratios (analyte/internal standard peak response).
# PK analyses of the plasma concentration-time relationships were performed with Phoenix software (version 6.2; Pharsight, USA). A noncompartmental analysis program, model 200, was used to calculate PK parameters. The maximum concentration of drug in plasma (Cmax), time to Cmax (Tmax), elimination half-life (t1/2), and area under the concentration-time curve (AUC) from time zero to infinity (AUC0–∞) were estimated. AUC was computed using the trapezoidal rule (linear up and log down), and the AUC0–∞ was considered only when the extrapolated AUC was not more than 20% of the original value. A minimum of three sample points in the terminal slope were used to calculate half-life.
# M. tuberculosis H37Rv [3] = assay: In vitro bactericidal-effect analysis (CFU enumeration of checkerboard wells); assay type: cell-based, Mycobacterium tuberculosis; conditions: single drug at its MIC (FIC of 1); positive = reduction in CFU
# Method: For determining the extent of the bactericidal effect, sample wells which remained blue in the resazurin microtiter assay (REMA) and whose ΣFICs were within the synergistic-to-additive range (<0.7 for doublets and <1.5 for triplets) were plated on Middlebrook 7H10 agar medium and incubated at 37°C for 21 to 28 days, following which bacterial colonies were enumerated to obtain the net reduction in CFU in comparison to the counts for the untreated controls at the start of drug testing, as well as to that achieved when M. tuberculosis was exposed to each drug alone.
# [4] = 150 mg/kg, Group 7 quartet PA824 50/BDQ 25/MXF 400/PZA 150 mg/kg oral, read-out: AUC0-24 in Quartet
# [5] = 150 mg/kg, Group 7 quartet PA824 50/BDQ 25/MXF 400/PZA 150 mg/kg oral, read-out: Cmax in Quartet
# [6] = 400 mg/kg, Group 7 triplet PA824 50/BDQ 25/MXF 400 mg/kg oral, read-out: AUC0-24 in Triplet
# [7] = 400 mg/kg, Group 7 triplet PA824 50/BDQ 25/MXF 400 mg/kg oral, read-out: Cmax in Triplet
smiles,measurement,setting,value
COc1c(N2C[C@@H]3CCCN[C@@H]3C2)c(F)cc2c(=O)c(C(=O)O)cn(C3CC3)c12 [Moxifloxacin],MIC,M. tuberculosis H37Rv [1],0.02 µM
same,AUC(0-t),"[2]; 150 mg/kg, Group 3 quartet BTZ043 37.5/SQ109 25/MXF 200/PZA 150 mg/kg oral, read-out: AUC0-24 in Quartet",13300 ± 3100 ng·h/mL
same,Cmax,"[2]; 150 mg/kg, Group 3 quartet BTZ043 37.5/SQ109 25/MXF 200/PZA 150 mg/kg oral, read-out: Cmax in Quartet",3900 ± 600 ng/mL
same,AUC(0-t),[2]; [4],76300 ± 13900 ng·h/mL
same,Cmax,[2]; [5],5100 ± 700 ng/mL
same,AUC(0-t),"[2]; 200 mg/kg, Group 3 triplet BTZ043 37.5/SQ109 25/MXF 200 mg/kg oral, read-out: AUC0-24 in Triplet",12100 ± 3500 ng·h/mL
same,Cmax,"[2]; 200 mg/kg, Group 3 triplet BTZ043 37.5/SQ109 25/MXF 200 mg/kg oral, read-out: Cmax in Triplet",2200 ± 900 ng/mL
same,AUC(0-t),[2]; [6],29800 ± 6600 ng·h/mL
same,Cmax,[2]; [7],4600 ± 800 ng/mL
same,ΔLog10 CFU/ml at the MIC,M. tuberculosis H37Rv [3],1.40 Log10 CFU/ml
CC(=O)Nc1ccc(/C=N/NC(N)=S)cc1 [Thiacetazone],MIC,M. tuberculosis H37Rv [1],8.47 µM
same,AUC(0-t),"[2]; 25 mg/kg, Group 6 triplet BTZ043 37.5/THI 800/SQ109 25 mg/kg oral, read-out: AUC0-24 in Triplet",87000 ± 52100 ng·h/mL
same,Cmax,"[2]; 25 mg/kg, Group 6 triplet BTZ043 37.5/THI 800/SQ109 25 mg/kg oral, read-out: Cmax in Triplet",8500 ± 2800 ng/mL
same,AUC(0-t),"[2]; 150 mg/kg, Group 6 quartet BTZ043 37.5/THI 800/SQ109 25/PZA 150 mg/kg oral, read-out: AUC0-24 in Quartet",68000 ± 16000 ng·h/mL
same,Cmax,"[2]; 150 mg/kg, Group 6 quartet BTZ043 37.5/THI 800/SQ109 25/PZA 150 mg/kg oral, read-out: Cmax in Quartet",5100 ± 400 ng/mL
same,ΔLog10 CFU/ml at the MIC,M. tuberculosis H37Rv [3],0.76 Log10 CFU/ml
CC(=O)NC[C@H]1CN(c2ccc(N3CCOCC3)c(F)c2)C(=O)O1 [Linezolid],MIC,M. tuberculosis H37Rv [1],2.31 µM
same,AUC(0-t),"[2]; 130 mg/kg, Group 9 triplet EMB 100/SQ109 25/LZD 130 mg/kg oral, read-out: AUC0-24 in Triplet",154000 ± 8800 ng·h/mL
same,Cmax,"[2]; 130 mg/kg, Group 9 triplet EMB 100/SQ109 25/LZD 130 mg/kg oral, read-out: Cmax in Triplet",14100 ± 100 ng/mL
same,AUC(0-t),"[2]; 150 mg/kg, Group 9 quartet EMB 100/SQ109 25/LZD 130/PZA 150 mg/kg oral, read-out: AUC0-24 in Quartet",178000 ± 12200 ng·h/mL
same,Cmax,"[2]; 150 mg/kg, Group 9 quartet EMB 100/SQ109 25/LZD 130/PZA 150 mg/kg oral, read-out: Cmax in Quartet",14900 ± 1200 ng/mL
same,ΔLog10 CFU/ml at the MIC,M. tuberculosis H37Rv [3],0.25 Log10 CFU/ml
O=[N+]([O-])c1cn2c(n1)OC[C@@H](OCc1ccc(OC(F)(F)F)cc1)C2 [PA824],MIC,M. tuberculosis H37Rv [1],1.09 µM
same,AUC(0-t),"[2]; 50 mg/kg, Group 1 triplet CFZ 20/BDQ 25/PA824 50 mg/kg oral, read-out: AUC0-24 in Triplet",76700 ± 18500 ng·h/mL
same,Cmax,"[2]; 50 mg/kg, Group 1 triplet CFZ 20/BDQ 25/PA824 50 mg/kg oral, read-out: Cmax in Triplet",11200 ± 2400 ng/mL
same,AUC(0-t),"[2]; 50 mg/kg, Group 2 triplet SQ109 25/BDQ 25/PA824 50 mg/kg oral, read-out: AUC0-24 in Triplet",86200 ± 8600 ng·h/mL
same,Cmax,"[2]; 50 mg/kg, Group 2 triplet SQ109 25/BDQ 25/PA824 50 mg/kg oral, read-out: Cmax in Triplet",9300 ± 2300 ng/mL
same,AUC(0-t),"[2]; 100 mg/kg, Group 8 triplet PA824 50/BDQ 25/EMB 100 mg/kg oral, read-out: AUC0-24 in Triplet",119000 ± 13800 ng·h/mL
same,Cmax,"[2]; 100 mg/kg, Group 8 triplet PA824 50/BDQ 25/EMB 100 mg/kg oral, read-out: Cmax in Triplet",13300 ± 500 ng/mL
same,AUC(0-t),"[2]; 150 mg/kg, Group 1 quartet CFZ 20/BDQ 25/PA824 50/PZA 150 mg/kg oral, read-out: AUC0-24 in Quartet",60900 ± 8000 ng·h/mL
same,Cmax,"[2]; 150 mg/kg, Group 1 quartet CFZ 20/BDQ 25/PA824 50/PZA 150 mg/kg oral, read-out: Cmax in Quartet",7800 ± 1100 ng/mL
same,AUC(0-t),"[2]; 150 mg/kg, Group 2 quartet SQ109 25/BDQ 25/PA824 50/PZA 150 mg/kg oral, read-out: AUC0-24 in Quartet",60700 ± 10000 ng·h/mL
same,Cmax,"[2]; 150 mg/kg, Group 2 quartet SQ109 25/BDQ 25/PA824 50/PZA 150 mg/kg oral, read-out: Cmax in Quartet",7300 ± 1100 ng/mL
same,AUC(0-t),[2]; [4],92100 ± 12700 ng·h/mL
same,Cmax,[2]; [5],6000 ± 800 ng/mL
same,AUC(0-t),"[2]; 150 mg/kg, Group 8 quartet PA824 50/BDQ 25/EMB 100/PZA 150 mg/kg oral, read-out: AUC0-24 in Quartet",66400 ± 19000 ng·h/mL
same,Cmax,"[2]; 150 mg/kg, Group 8 quartet PA824 50/BDQ 25/EMB 100/PZA 150 mg/kg oral, read-out: Cmax in Quartet",9800 ± 3600 ng/mL
same,AUC(0-t),[2]; [6],134000 ± 41700 ng·h/mL
same,Cmax,[2]; [7],8400 ± 1000 ng/mL
same,ΔLog10 CFU/ml at the MIC,M. tuberculosis H37Rv [3],1.07 Log10 CFU/ml
